{"source": "patent US7718385B2", "about": "“Bioactivation of alkylating agents for cancer treatment” (priority 2003, dated 2010)", "key": {"[1]": {"test": "Nonenzymatic reactivity of the 8,9-double bond with GSH (absorbance 330 nm)", "format": "physicochemical", "conditions": "3.25 mM GSH, pH 7.4, 1 h, 30° C.", "from_the_text": "Reaction of the 8,9-double bond with GSH was followed spectrophotometrically at 330 nm.\nThe sulfhydryl group of GSH is a potent nucleophile that rapidly reacts with most electrophilic α,β-unsaturated carbonyl groups via a Michael-addition mechanism."}, "[2]": {"system": "UO-31", "conditions": "UO-31, Renal; cited from earlier work"}, "[3]": {"system": "MOLT-4", "conditions": "MOLT-4, Leukemia, cited from earlier work"}, "[4]": {"system": "SR", "conditions": "cited from earlier work"}, "[5]": {"system": "EKVX", "conditions": "cited from earlier work"}, "[6]": {"system": "HOP-62", "conditions": "HOP-62, Non-Small Cell Lung, cited from earlier work"}, "[7]": {"system": "HOP-92", "conditions": "HOP-92, Non-Small Cell Lung, cited from earlier work"}, "[8]": {"system": "NCI-H322M", "conditions": "cited from earlier work"}, "[9]": {"system": "COLO 205", "conditions": "COLO 205, Colon, cited from earlier work"}, "[10]": {"system": "HCC-2998", "conditions": "HCC-2998, Colon, cited from earlier work"}, "[11]": {"system": "SNB-75", "conditions": "SNB-75, Central Nervous System, cited from earlier work"}, "[12]": {"system": "SK-MEL-2", "conditions": "SK-MEL-2, Melanoma, cited from earlier work"}, "[13]": {"system": "SK-MEL-28", "conditions": "SK-MEL-28, Melanoma, cited from earlier work"}, "[14]": {"system": "OVCAR-4", "conditions": "OVCAR-4, Ovarian, cited from earlier work"}, "[15]": {"system": "A498", "conditions": "A498, Renal, cited from earlier work"}, "[16]": {"system": "ACHN", "conditions": "Renal; cited from earlier work"}, "[17]": {"system": "TK-10", "conditions": "TK-10, Renal, cited from earlier work"}, "[18]": {"system": "PC-3", "conditions": "PC-3, Prostate, cited from earlier work"}, "[19]": {"system": "DU-145", "conditions": "DU-145, Prostate, cited from earlier work"}, "[20]": {"conditions": "read-out: LC50, Non-Small Cell Lung"}}, "data": [{"compound": "CC1=C(CO)C2=C(C)C3(CC3)[C@@](C)(O)C(=O)C2=C1", "note": "[Irofulven, 6-hydroxymethylacylfulvene]", "values": [{"measurement": "reactivity of the α,β-unsaturated ketone with GSH", "setting": "[1]", "result": "relatively resistant to nucleophilic attack"}, {"measurement": "GI50", "setting": "[2]", "result": 200, "unit": "nM"}, {"measurement": "TGI", "setting": "[2]", "result": "5.01E−07"}, {"measurement": "log(GI50)", "setting": "[2]", "result": "−6.7"}, {"measurement": "log(TGI)", "setting": "[2]", "result": "−6.3"}, {"measurement": "GI50", "setting": "[3]", "result": 794, "unit": "nM"}, {"measurement": "TGI", "setting": "[3]", "result": "2.00E−05"}, {"measurement": "log(GI50)", "setting": "[3]", "result": "−6.1"}, {"measurement": "log(TGI)", "setting": "[3]", "result": "−4.7"}, {"measurement": "CC50", "setting": "[3]; read-out: LC50", "result": "≥ 100000", "unit": "nM"}, {"measurement": "GI50", "setting": "[4]; Leukemia", "result": 794, "unit": "nM"}, {"measurement": "TGI", "setting": "[4]; Leukemia", "result": "1.00E−04"}, {"measurement": "log(GI50)", "setting": "[4]; Leukemia", "result": "−6.1"}, {"measurement": "log(TGI)", "setting": "[4]; Leukemia", "result": "−4"}, {"measurement": "CC50", "setting": "[4]; read-out: LC50, Leukemia", "result": "≥ 100000", "unit": "nM"}, {"measurement": "GI50", "setting": "[5]; Non-Small Cell Lung", "result": 200, "unit": "nM"}, {"measurement": "TGI", "setting": "[5]; Non-Small Cell Lung", "result": "5.01E−07"}, {"measurement": "log(GI50)", "setting": "[5]; Non-Small Cell Lung", "result": "−6.7"}, {"measurement": "log(LC50)", "setting": "[5]; Non-Small Cell Lung", "result": "−5.4"}, {"measurement": "log(TGI)", "setting": "[5]; Non-Small Cell Lung", "result": "−6.3"}, {"measurement": "CC50", "setting": "[5]; [20]", "result": 3980, "unit": "nM"}, {"measurement": "GI50", "setting": "[6]", "result": 158, "unit": "nM"}, {"measurement": "TGI", "setting": "[6]", "result": "3.98E−07"}, {"measurement": "log(GI50)", "setting": "[6]", "result": "−6.8"}, {"measurement": "log(LC50)", "setting": "[6]", "result": "−5.9"}, {"measurement": "log(TGI)", "setting": "[6]", "result": "−6.4"}, {"measurement": "CC50", "setting": "[6]; read-out: LC50", "result": 1260, "unit": "nM"}, {"measurement": "GI50", "setting": "[7]", "result": 316, "unit": "nM"}, {"measurement": "TGI", "setting": "[7]", "result": "6.31E−07"}, {"measurement": "log(GI50)", "setting": "[7]", "result": "−6.5"}, {"measurement": "log(LC50)", "setting": "[7]", "result": "−4.6"}, {"measurement": "log(TGI)", "setting": "[7]", "result": "−6.2"}, {"measurement": "CC50", "setting": "[7]; read-out: LC50", "result": 25100, "unit": "nM"}, {"measurement": "GI50", "setting": "[8]; Non-Small Cell Lung", "result": 251, "unit": "nM"}, {"measurement": "TGI", "setting": "[8]; Non-Small Cell Lung", "result": "6.31E−07"}, {"measurement": "log(GI50)", "setting": "[8]; Non-Small Cell Lung", "result": "−6.6"}, {"measurement": "log(LC50)", "setting": "[8]; Non-Small Cell Lung", "result": "−4.9"}, {"measurement": "log(TGI)", "setting": "[8]; Non-Small Cell Lung", "result": "−6.2"}, {"measurement": "CC50", "setting": "[8]; [20]", "result": 12600, "unit": "nM"}, {"measurement": "GI50", "setting": "[9]", "result": 158, "unit": "nM"}, {"measurement": "TGI", "setting": "[9]", "result": "5.01E−07"}, {"measurement": "log(GI50)", "setting": "[9]", "result": "−6.8"}, {"measurement": "log(LC50)", "setting": "[9]", "result": "−6.2"}, {"measurement": "log(TGI)", "setting": "[9]", "result": "−6.3"}, {"measurement": "CC50", "setting": "[9]; read-out: LC50", "result": 631, "unit": "nM"}, {"measurement": "GI50", "setting": "[10]", "result": 158, "unit": "nM"}, {"measurement": "TGI", "setting": "[10]", "result": "3.16E−07"}, {"measurement": "log(GI50)", "setting": "[10]", "result": "−6.8"}, {"measurement": "log(LC50)", "setting": "[10]", "result": "−6.2"}, {"measurement": "log(TGI)", "setting": "[10]", "result": "−6.5"}, {"measurement": "CC50", "setting": "[10]; read-out: LC50", "result": 631, "unit": "nM"}, {"measurement": "GI50", "setting": "[11]", "result": 200, "unit": "nM"}, {"measurement": "TGI", "setting": "[11]", "result": "5.01E−07"}, {"measurement": "log(GI50)", "setting": "[11]", "result": "−6.7"}, {"measurement": "log(LC50)", "setting": "[11]", "result": "−5.7"}, {"measurement": "log(TGI)", "setting": "[11]", "result": "−6.3"}, {"measurement": "CC50", "setting": "[11]; read-out: LC50", "result": 2000, "unit": "nM"}, {"measurement": "GI50", "setting": "[12]", "result": 200, "unit": "nM"}, {"measurement": "TGI", "setting": "[12]", "result": "3.98E−07"}, {"measurement": "log(GI50)", "setting": "[12]", "result": "−6.7"}, {"measurement": "log(LC50)", "setting": "[12]", "result": "−6.2"}, {"measurement": "log(TGI)", "setting": "[12]", "result": "−6.4"}, {"measurement": "CC50", "setting": "[12]; read-out: LC50", "result": 631, "unit": "nM"}, {"measurement": "GI50", "setting": "[13]", "result": 631, "unit": "nM"}, {"measurement": "TGI", "setting": "[13]", "result": "1.58E−06"}, {"measurement": "log(GI50)", "setting": "[13]", "result": "−6.2"}, {"measurement": "log(LC50)", "setting": "[13]", "result": "−4.7"}, {"measurement": "log(TGI)", "setting": "[13]", "result": "−5.8"}, {"measurement": "CC50", "setting": "[13]; read-out: LC50", "result": 20000, "unit": "nM"}, {"measurement": "GI50", "setting": "[14]", "result": 251, "unit": "nM"}, {"measurement": "TGI", "setting": "[14]", "result": "6.31E−07"}, {"measurement": "log(GI50)", "setting": "[14]", "result": "−6.6"}, {"measurement": "log(LC50)", "setting": "[14]", "result": "−4.6"}, {"measurement": "log(TGI)", "setting": "[14]", "result": "−6.2"}, {"measurement": "CC50", "setting": "[14]; read-out: LC50", "result": 25100, "unit": "nM"}, {"measurement": "GI50", "setting": "[15]", "result": 200, "unit": "nM"}, {"measurement": "TGI", "setting": "[15]", "result": "5.01E−07"}, {"measurement": "log(GI50)", "setting": "[15]", "result": "−6.7"}, {"measurement": "log(LC50)", "setting": "[15]", "result": "−5.7"}, {"measurement": "log(TGI)", "setting": "[15]", "result": "−6.3"}, {"measurement": "CC50", "setting": "[15]; read-out: LC50", "result": 2000, "unit": "nM"}, {"measurement": "GI50", "setting": "[16]", "result": 251, "unit": "nM"}, {"measurement": "TGI", "setting": "[16]", "result": "1.00E−06"}, {"measurement": "log(GI50)", "setting": "[16]", "result": "−6.6"}, {"measurement": "log(TGI)", "setting": "[16]", "result": "−6"}, {"measurement": "GI50", "setting": "[17]", "result": 251, "unit": "nM"}, {"measurement": "TGI", "setting": "[17]", "result": "1.26E−06"}, {"measurement": "log(GI50)", "setting": "[17]", "result": "−6.6"}, {"measurement": "log(TGI)", "setting": "[17]", "result": "−5.9"}, {"measurement": "CC50", "setting": "[17]; read-out: LC50", "result": "≥ 100000", "unit": "nM"}, {"measurement": "GI50", "setting": "[18]", "result": 251, "unit": "nM"}, {"measurement": "TGI", "setting": "[18]", "result": "1.26E−06"}, {"measurement": "log(GI50)", "setting": "[18]", "result": "−6.6"}, {"measurement": "log(LC50)", "setting": "[18]", "result": "−4.5"}, {"measurement": "log(TGI)", "setting": "[18]", "result": "−5.9"}, {"measurement": "CC50", "setting": "[18]; read-out: LC50", "result": 31600, "unit": "nM"}, {"measurement": "GI50", "setting": "[19]", "result": 100, "unit": "nM"}, {"measurement": "TGI", "setting": "[19]", "result": "2.00E−07"}, {"measurement": "log(GI50)", "setting": "[19]", "result": "−7"}, {"measurement": "log(TGI)", "setting": "[19]", "result": "−6.7"}, {"measurement": "CC50", "setting": "[19]; read-out: LC50", "result": "≥ 100000", "unit": "nM"}]}]}
